Data: EP0637237B1, “CALCIUM RECEPTOR-ACTIVE MOLECULES” (BRIGHAM AND WOMEN'S HOSPITAL, INC., priority 1993, dated 1994)
Where two headings read alike, the source gives them in different places.

How the values were obtained:
C-cell Ca^2+ receptor = biological target: T1, C-cell Ca^2+ receptor (Rattus norvegicus, UniProt P48442); format: cell-based; conditions: Table 6; rMTC 6-23 cells, fura-2; inactive = no increase in cytosolic Ca2+ at 1-5 mM
T1 sequence (P48442 20-1079): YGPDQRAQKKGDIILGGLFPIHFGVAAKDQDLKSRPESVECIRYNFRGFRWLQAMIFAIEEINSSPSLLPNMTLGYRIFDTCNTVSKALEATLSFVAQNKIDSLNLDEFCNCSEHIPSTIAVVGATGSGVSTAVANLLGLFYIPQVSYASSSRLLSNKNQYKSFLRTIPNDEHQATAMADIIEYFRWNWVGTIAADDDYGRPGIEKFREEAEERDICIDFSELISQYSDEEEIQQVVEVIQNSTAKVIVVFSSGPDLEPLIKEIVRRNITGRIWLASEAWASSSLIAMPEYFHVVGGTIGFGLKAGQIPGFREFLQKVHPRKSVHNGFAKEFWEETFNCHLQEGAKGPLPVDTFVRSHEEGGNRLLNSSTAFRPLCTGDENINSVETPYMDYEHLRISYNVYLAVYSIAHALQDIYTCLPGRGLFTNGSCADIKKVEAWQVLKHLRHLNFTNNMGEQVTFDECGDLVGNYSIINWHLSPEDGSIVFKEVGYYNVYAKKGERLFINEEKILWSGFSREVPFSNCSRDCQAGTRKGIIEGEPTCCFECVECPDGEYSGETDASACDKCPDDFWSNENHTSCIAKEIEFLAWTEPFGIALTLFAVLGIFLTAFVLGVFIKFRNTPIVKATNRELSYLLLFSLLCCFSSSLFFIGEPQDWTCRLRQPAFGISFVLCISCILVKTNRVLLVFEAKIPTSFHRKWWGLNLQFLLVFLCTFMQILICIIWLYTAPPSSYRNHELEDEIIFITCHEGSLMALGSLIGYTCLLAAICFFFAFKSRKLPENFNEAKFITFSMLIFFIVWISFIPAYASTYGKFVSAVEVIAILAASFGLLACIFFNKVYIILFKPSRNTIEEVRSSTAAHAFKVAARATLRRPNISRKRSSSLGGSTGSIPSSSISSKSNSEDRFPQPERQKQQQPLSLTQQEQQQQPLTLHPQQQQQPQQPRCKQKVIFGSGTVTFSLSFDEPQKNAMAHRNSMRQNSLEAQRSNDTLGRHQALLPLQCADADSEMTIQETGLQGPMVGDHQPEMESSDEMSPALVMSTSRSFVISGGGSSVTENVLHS

[1] = biological target: T2, parathyroid cell Ca^2+ receptor (Bos taurus, UniProt P35384); format: cell-based, bovine
T2 sequence (P35384 20-1085): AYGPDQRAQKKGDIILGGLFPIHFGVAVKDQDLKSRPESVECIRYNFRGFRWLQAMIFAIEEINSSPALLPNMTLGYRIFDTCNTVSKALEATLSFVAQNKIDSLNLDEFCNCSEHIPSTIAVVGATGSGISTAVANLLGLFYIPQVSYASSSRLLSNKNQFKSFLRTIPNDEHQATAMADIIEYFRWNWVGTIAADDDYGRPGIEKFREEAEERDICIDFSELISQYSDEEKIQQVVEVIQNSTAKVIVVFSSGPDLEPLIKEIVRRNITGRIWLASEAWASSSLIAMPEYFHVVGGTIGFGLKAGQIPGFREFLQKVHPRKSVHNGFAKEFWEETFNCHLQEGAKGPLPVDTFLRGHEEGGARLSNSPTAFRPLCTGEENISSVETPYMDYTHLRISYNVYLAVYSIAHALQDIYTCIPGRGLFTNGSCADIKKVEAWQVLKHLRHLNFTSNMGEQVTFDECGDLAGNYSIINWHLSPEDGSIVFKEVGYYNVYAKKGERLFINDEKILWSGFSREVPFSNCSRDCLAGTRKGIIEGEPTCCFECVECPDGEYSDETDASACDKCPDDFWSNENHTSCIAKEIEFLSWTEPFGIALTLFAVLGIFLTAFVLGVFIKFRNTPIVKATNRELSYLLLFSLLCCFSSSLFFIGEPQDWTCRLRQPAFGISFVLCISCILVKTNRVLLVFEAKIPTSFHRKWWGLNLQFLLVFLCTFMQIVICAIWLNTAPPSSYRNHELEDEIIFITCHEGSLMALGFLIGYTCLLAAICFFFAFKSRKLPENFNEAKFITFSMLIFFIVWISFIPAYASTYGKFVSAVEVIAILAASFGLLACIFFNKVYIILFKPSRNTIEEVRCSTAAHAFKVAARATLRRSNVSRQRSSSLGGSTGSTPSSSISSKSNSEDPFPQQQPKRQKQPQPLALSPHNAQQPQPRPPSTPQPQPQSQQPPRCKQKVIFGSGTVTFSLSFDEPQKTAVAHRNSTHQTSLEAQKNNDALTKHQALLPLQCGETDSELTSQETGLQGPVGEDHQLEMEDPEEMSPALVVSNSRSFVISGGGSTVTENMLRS

[2] = Serum or whole blood ionized Ca2+ and PTH in rats in vivo; parameters: species or system Sprague-Dawley rats
Text: Male Sprague-Dawley rates (200 g) were maintained on a low calcium diet for one week prior to receiving test substance or vehicle as control. Blood was collected from the tail vein three hours after the intra-peritoneal administration of NPS 467. […]

[3] = Serum ionized Ca2+ in parathyroidectomized rats; format: in vivo; conditions: single dose 10 mg/kg i.p., over a period of 6 hours
Text: To determine the primary target tissue upon which NPS 467 acts to cause a hypocalcemic response, the para thyroid glands in rats were surgically removed.

[4] = Serum ionized Ca2+ in the 5/6 nephrectomized rat (secondary hyperparathyroidism model); format: in vivo, Sprague-Dawley rats; conditions: 10 mg/kg i.p.
Text: An accepted and widely used animal model of secondary hyperparathyroidism arising from chronic renal failure is the 5/6 nephrectomized rat. […] Male Sprague-Dawley rats (250 g) received a 5/6 nephrectomy and were allowed to recover for 2 weeks. At this time they were normocalcemic (due to elevated levels of serum PTH).

[5] = normal calcium-replete diet, 10 mg/kg i.p.

## NCCCNCCCCNCCCNCCCN(O)CCCNC(=O)Cc1c[nH]c2cccc(O)c12 [NPS 015]
C-cell Ca^2+ receptor
  EC50(µM) C-CELL: inactive

## COc1cccc([C@@H](C)NCCCc2ccccc2)c1 [NPS R-467]
[1]; 30 àM NPS R-467 alone, Ca2+-free buffer
  [Ca2+]i response in Ca2+-free buffer: no increase in [Ca^2+]i
[1]; NPS R-467 30 µM added after 10 µM neomycin
  [Ca2+]i response in Ca2+-free buffer after neomycin: elicited a transient increase in [Ca^2+]i
[1]; NPS R-467 30 µM added after 100 µM neomycin
  [Ca2+]i response in Ca2+-free buffer after neomycin: did not cause an increase in [Ca^2+]i
[2]; each compound at 5 mg/kg body weight, Fig. 42
  potency in lowering serum Ca2+ in vivo, enantiomers compared: more potent than the S-isomer in lowering serum Ca^2+ in vivo
[2]; [5]
  time serum ionized Ca2+ remained depressed: up to 6 hours
  time to maximal fall in serum ionized Ca2+: ≤ 1 h
[2]; normal calcium-replete diet, single dose 10 mg/kg i.p., at 1 hr
  decrease in serum ionized Ca2+ from the control level: 22%
[3]
  change in serum ionized Ca2+ levels: did not cause any change in serum ionized Ca^2+ levels
[4]
  time of the fall in serum ionized Ca2+: ≤ 2 h
[4]; 5/6 nephrectomy, 2 weeks recovery
  serum ionized Ca2+ levels: 83 % of controls
